Data published in US10457709B2, “Antimicrobial peptides, their variants and uses” (priority 2015, dated 2019).
Read-outs that look alike come from different tables or passages of the source. Square brackets hold non-standard residues; d marks the D form. Peptide text beside a SMILES is read from it.

What was measured:
[1] = tested on: Escherichia coli (ATCC 25922); assay: microbe, parasite or virus in culture; assay type: cell-based
Summary of the method: (§1)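 Broth microdilution in Mueller-Hinton broth at 5.0×10^5 cfu/ml, peptides tested from 0.125 to 128 μg/ml in polypropylene plates.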

[2] = tested on: Klebsiella pneumoniae (ATCC 10031); assay: microbe, parasite or virus in culture; assay type: cell-based
Summary of the method: as §1

[3] = tested on: Staphylococcus aureus (ATCC 25923); assay: microbe, parasite or virus in culture; assay type: cell-based
Summary of the method: as §1

[4] = tested on: Pseudomonas aeruginosa (ATCC 27853); assay: microbe, parasite or virus in culture; assay type: cell-based
Summary of the method: as §1

[5] = tested on: Escherichia coli (ATCC 25922); assay type: cell-based; details: Peptides 50 μg, Gentamycin 5 μg, diameter including the wells
Protocol: (§2) The radial diffusion assay (RDA) was carried out as described by Andersen et al. (2010). Briefly, 30 ml of 1/10 Muller-Hinton broth (MHB) supplemented with 1% agarose and 5.0×10^5 CFU/ml S. aureus or E. coli or K. pneumoniae, P. aeruginosa cells was poured into a single-well omnitray (Nunc) and overlaid with a TSP 96-well plate. […] The peptides were also tested against Fusarium oxysporum and Verticillium dahliae, for which ⅓ potato dextrose agarose was used. To test the synergistic effect of peptides, each peptide was mixed in equimolar concentrations. Mix1 (met1-12), Mix2 (met3, 4 and 5), Mix3 (met8, 9 and 10), Mix4 (met11, 12) and Mix5 (8, 9, 10, 11, 12) were prepared and tested against E. coli and S. aureus. Gentamicin and vancomycin were included as positive controls for bacteria and amphotericin B was used as the control for fungi.
(§3) By using rational design techniques, we have designed variants of peptides by incorporating or replacing various amino acids in the original peptides. Thus, we have designed and modified Chain 100, Chain 200 and Chain 300 with tryptophan (W), arginine (R) and lysine (K) at various positions to improve antimicrobial activity (FIGS. 4a-c and 5a-c). In some peptides we have also used other amino acids such as Leucine (L), Cysteine (C), Isoleucine (I), Phenylalanine (F) and Alanine (A). For synthesis, 32 variants and 3 original peptides were selected based on the various parameters such as positive charge, aliphatic index and instability index. Peptides variants were tested by using radial diffusion assay against Escherichia coli (ATCC 25922), Staphylococcus aureus (ATCC 25923), Klebsiella pneumoniae (ATCC 10031) and Pseudomonas aeruginosa (ATCC 27853) (FIGS. 6a-c). The zone of inhibition ranged between 10-18 mm for Escherichia coli and Staphylococcus aureus, 6-18 mm & 8-18 mm for Pseudomonas aeruginosa and Klebsiella pneumonia respectively (Table 2). For Gentamicin it was between 22-24 mm. Antifungal activity was tested for promising antibacterial peptides (Chains 104, 105, 109, 201, 204, 306, 307, 308, 310) against Aspergillus flavus (DSM 1959) and Penicillium chrysogenum (DSM 1075). All these peptides has activity at a concentration of 20 μg, Amphotericin B was used as a positive control at 20 μg (FIG. 7).

[6] = tested on: Klebsiella pneumoniae (ATCC 10031); assay type: cell-based; details: Peptides 50 μg, Gentamycin 5 μg, diameter including the wells
Protocol: as §2, §3

[7] = tested on: Staphylococcus aureus (ATCC 25923); assay type: cell-based; details: Peptides 50 μg, Gentamycin 5 μg, diameter including the wells
Protocol: as §2, §3

[8] = tested on: Pseudomonas aeruginosa (ATCC 27853); assay type: cell-based; details: Peptides 50 μg, Gentamycin 5 μg, diameter including the wells
Protocol: as §2, §3

[9] = tested on: MRSA strains (S. aureus COL); assay: MIC, synergistic activity with Ertapenem (4 μg/ml); assay type: cell-based, Staphylococcus aureus; details: Ertapenem 4 μg/ml; D-form peptide
Protocol: Minimum inhibition concentrations (MICs) were determined against Escherichia coli (ATCC 25922), Staphylococcus aureus (ATCC 25923), Klebsiella pneumoniae (ATCC 10031) and Pseudomonas aeruginosa (ATCC 27853). Also clinical strains of E. coli, K. pneumoniae, E. cloacae, P. aeruginosa, Serratia marcescens, Proteus mirabilis, S. pneumoniae, Acinetobacter baumannii, A. johnsonii and S. aureus were used for MICs assays. Additionally, clinical strains of yeast including Candida albicans, C. glabrata, C. parapsilosis and C. quillermondiae were used. The susceptibility of these microorganisms to Chain peptides were determined using micro broth dilution assay. Colonies of the respective microorganism from Muller Hinton (MH) agar plates incubated overnight were suspended in MH broth media and final concentration of microorganism was adjusted to 5.0×10^5 cfu/ml. An aliquot of 10 μl of each Chain peptide, or gentamicin, tetracycline as reference antibiotics were added in differing concentrations along with 90 μl of bacterial suspension to 96 well polypropylene plates and incubated at 37° C. for 20 to 24 hours. Concentrations of Chain peptides and reference antibiotics ranged from 0.125 to 128 μg/ml and the MICs were recorded as the lowest concentration with no visual growth of bacteria. Similarly, antifungal MICs were tested in Potato dextrose broth.
Peptides Chain 104, Chain 105, Chain 201, Chain 308, Chain 310 were tested against antibiotic-sensitive strains of S. aureus RN4220 and methicillin resistant strains of S. aureus COL (MRSA). Chain peptides comprising of either L- or D-form amino acids were tested against these bacteria, and the D-form peptides were found have better activity compared to L-form (Table 6). Synergistic activity of chain peptides along with Ertapenem (4 μg/ml) was tested to know whether it will influence the activity against MRSA strains. […] Chain 310 has the best antibacterial activity against the MRSA strains with a MIC of 0.06 & 0.03 μg/ml along with Ertapenem (4 μg/ml) for both forms of L and D-peptides (Table 6).

Row | Compound | Minimum inhibitory concentration, Escherichia coli (ATCC 25922) [1] | Minimum inhibitory concentration, Klebsiella pneumoniae (ATCC 10031) [2] | Minimum inhibitory concentration, Staphylococcus aureus (ATCC 25923) [3] | Minimum inhibitory concentration, Pseudomonas aeruginosa (ATCC 27853) [4] | Inhibition zone, Escherichia coli [5] | Inhibition zone, Escherichia coli ([5]; listed as Gentamycin) | Inhibition zone, Klebsiella pneumoniae [6] | Inhibition zone, Klebsiella pneumoniae ([6]; listed as Gentamycin) | Inhibition zone, Staphylococcus aureus [7] | Inhibition zone, Staphylococcus aureus ([7]; listed as Gentamycin) | Inhibition zone, Pseudomonas aeruginosa [8] | Inhibition zone, Pseudomonas aeruginosa ([8]; listed as Gentamycin) | MIC against MRSA strains along with Ertapenem [9]
1 | Gentamicin [reference compound] | 1 µg/mL | 0.25 µg/mL | 0.25 µg/mL | 0.25 µg/mL | 22-24 mm | 22 mm | 22-24 mm | 22 mm | 22-24 mm | 24 mm | 22-24 mm | 24 mm | –
2 | CC(C)C[C@@H](NC(=O)[C@@H](CCCCN)NC(=O)[C@@H](CCCCN)NC(=O)[C@@H](Cc1ccccc1)NC(=O)[C@@H](CC(C)C)NC(=O)[C@@H](Cc1c[nH]c2ccccc12)NC(=O)[C@@H](CCCNC(=N)N)NC(=O)[C@@H](Cc1c[nH]c2ccccc12)NC(=O)[C@@H](CCCCN)NC(=O)[C@@H](CCCNC(=N)N)NC(=O)[C@H](N)CCCCN)C(=O)O [Chain310D] (H-[dK][dR][dK][dW][dR][dW][dL][dF][dK][dK][dL]-OH) | – | – | – | – | – | – | – | – | – | – | – | – | 0.03 µg/mL
